The results in this text go back to a melting point compilation (Tetko et al.; mined from patent text by program, amines drawn as free bases though some values may be those of a salt).

In the case of `CCCCC/C(=C\C=C\C(=O)O)c1ccc(OC)c(OC)c1`, the melting point (in general, the temperature, or range, at which the solid turns liquid) was in the range of 98 to 99.5 °C.

Compound `CC(CO)N1CC(COc2cccc(Cl)c2)OC1=O` (stereo not drawn) yielded a melting point of 76 to 78 °C.

The compound `Cc1cc2c(c3ccc(=O)[nH]c13)OC(CNC(=O)C(C)(C)NC(=O)OCc1ccccc1)C2` (stereo not drawn) registered a melting point of 220 to 222 °C.

Compound `COc1cc(C)c(/C=C/c2nc3c(c(=O)n(C)c(=O)n3C)n2C)cc1C` had a melting point of over 280 °C.

For `COc1cc(COc2cc(/C=C/C(=O)O)n(-c3ccccc3)n2)ccc1OCc1nc(-c2ccco2)oc1C`, the melting point was in the range of 191 to 192 °C.

In turn, `CC(C)OC(=O)Nc1cccc(-c2ccnc3c(C(=O)C4CCCC4)cnn23)c1` gave a melting point of 57 to 59 °C.

Consider `CSc1nn(C(=O)NC(C)c2ccc(Cl)c(Cl)c2)c(=O)n1N` (stereo not drawn), for which the melting point was determined as 132 °C.

As for `CCOc1ccc(N2CCN(Cc3c[nH]c4ncccc34)CC2)cc1`, the melting point is 179 to 180 °C.

`N#CC1=C(Nc2ccc(Br)cc2)CCC1`: the melting point was 136 to 138 °C.

`CCOC(=O)c1ccn2c(=O)c(CC)c(C)nc2c1`: the melting point lay in the range of 95 to 96 °C.

For `CC(=O)NCC(=O)Nn1cccc1C(=O)c1ccccc1F`, the melting point fell in the range of 146 to 147 °C.

`C=C=CP1(=O)OCC(C)(C)CO1` displayed a melting point of 128 to 133 °C.

Regarding `CN(C)Cc1nnc2n1-c1ccc(Cl)cc1C(c1ccccc1)=[N+]([O-])C2`, the melting point was in the range of 217 to 219 °C.

In turn, `CCOC(=O)CCCCCOc1ccc(C=O)cc1` gave a melting point of 33 to 35 °C.

`CN(C(c1ccccc1)c1ccccc1)S(=O)(=O)CC#N` registered a melting point of 104 to 107 °C.

In turn, `O=C(NCCN1CCN(c2cccc(Cl)c2)CC1)NC12CC3CC(CC(C3)C1)C2` had a melting point of 136 to 137 °C.

Compound `COc1ccc(-c2cn3c(n2)-c2ccccc2CC3)cc1` displayed a melting point of 179 to 181 °C.

On to `CSc1nc(NCc2ccc(-c3ccsc3)cc2)n2ncc(C(C)C)c2n1`, for which the melting point lay in the range of 141 to 143 °C.

`Cc1ccc(C2CC(=O)C=C(N)C2)s1` (stereo not drawn) registered a melting point of 172 to 173 °C.

With `O=C(NCC(=O)N(CC(=O)N1CCCCC1c1ccccc1)c1ccccc1)Nc1cccc(CO)c1` (racemic), the melting point was found to be 104 °C.

Consider `CCCCc1nc2c(N)nc3cccnc3c2n1CCNC(=O)Cc1cccc(O)c1`, for which the melting point lay in the range of 208 to 210 °C.

With `CCNC(=O)n1nc(Oc2ccc([N+](=O)[O-])c(C(F)(F)F)c2)cc1C`, the melting point lay in the range of 95 to 97 °C.

On to `CC(=O)OCc1ccc(-c2nc3c(s2)C(=O)c2ccccc2C3=O)o1`, for which the melting point worked out at 204 °C.

In the case of `OC1(c2ccc(Cl)c(Cl)c2)c2ccccc2C2=NCCCN21` (stereo not drawn), the melting point was in the range of 267 to 269 °C.

On to `CC(=O)c1ccc2c(c1)N(C1CCN(CCc3ccc(F)cc3)CC1)CC2`, for which the melting point lay in the range of 90 to 92 °C.

Consider `CC1(C)OC(C=Cc2cc3ccccc3s2)=CC1=O`, for which the melting point is 104 °C.

`CNS(=O)(=O)Cc1ccc2c(c1)c(CC#N)cn2Cc1ccccc1` showed a melting point of 133 to 135 °C.

`CCCCOc1nc(N)c2[nH]c(=O)n(CCCCNS(=O)(=O)c3ccc(CCC(=O)OC)cc3)c2n1`: the melting point fell in the range of 150 to 152 °C.

Take `N#CCC1(C#N)CCC(=O)CC1`: the melting point fell in the range of 154 to 155 °C.

As for `COC(=O)c1ccc(NC(=O)c2cc(C(C)C)c(C(C)C)o2)cc1`, the melting point fell in the range of 198 to 200 °C.

As for `NC(=O)c1ccc(Nc2nc(N)nc(Cc3c(Cl)ccc4[nH]ccc34)n2)cc1`, the melting point fell in the range of 204 to 205 °C.

`C#Cc1ccnc(-c2ccc(-c3cc(C#C)ccn3)c([N+](=O)[O-])c2)c1`: the melting point was in the range of 178 to 180 °C.

The compound `O=[N+]([O-])c1ccc(-c2cc(-c3ccc(Cl)cc3)[nH]c2C(F)(F)F)s1` yielded a melting point of 65 to 66 °C.

Turning to `CC(C)(C)OC(=O)N1CCCC(Nc2cc(-c3ccc(F)c(NC(=O)c4cnc(C(C)(C)C)cn4)c3)n[nH]c2=O)C1` (stereo not drawn), the melting point lay in the range of 120 to 121 °C.

For the compound `CC(=O)Cc1ccc2oc(C(=O)O)c(C)c2c1`, the melting point lay within 77 to 79 °C.

Consider `N#Cc1ccc2[nH]c3ccc(C#N)cc3c2c1`, for which the melting point is 360 °C.

The compound `COC(=O)c1ccc(C(=O)c2ccccc2)cc1` gave a melting point of 133 to 135 °C.

Regarding `COc1cc(C=CC(=O)Nc2cnc3ccc(C(C)C)cc3c2-c2ccccc2Cl)cc(OC)c1OC(C)=O`, the melting point turned out to be 138 °C.

`CS(=O)(=O)c1ccc(-n2nc(C(F)(F)F)cc2-c2nc3ccc(Cl)cc3s2)cc1` registered a melting point of 195 to 196 °C.

Regarding `CCCCCCCCCCCCCCCNC(=O)OCCOCCOC(=O)N(Cc1ccccn1)C(C)=O`, the melting point lay in the range of 53 to 55 °C.

Regarding `C=CC(=O)Oc1ccc(C(C)(c2ccc(OC(=O)C=C)cc2)c2ccc(OC(=O)C=C)cc2)cc1`, the melting point is 130 °C.

`COc1ccc(-c2[nH]nc3c2C(=O)c2c(NC(=O)CN4CCN(c5ccccn5)CC4)cccc2-3)cc1`: the melting point was over 300 °C.

Consider `O=C(O)c1cc(-n2c(-c3ccc(Br)cc3)cc3c2CCCC3)ccc1O`, for which the melting point lay in the range of 231 to 232 °C.

With `COc1cc2c(c3c1OC(C)(C)C3)C(c1cccc(-c3ccccc3)c1)=NC(C)(C)C2`, the melting point lay in the range of 141 to 142 °C.

`COC(=O)C1=C(C)NC(C)=C(C(=O)OCCCCCCOc2cc(-c3ccccc3)[nH]n2)C1c1cccc(Cl)c1Cl` (stereo not drawn) gave a melting point of 68 to 71 °C.

`CC(=O)NCC1OCC(Cc2ccc(Cl)cc2)CO1` (stereo not drawn): the melting point stood at 95 °C.

Consider `CC(C)NCC(O)COc1cccnc1` (stereo not drawn), for which the melting point lay within 84 to 87 °C.

As to `O=C(O)[C@@H]1CCCN1C(=S)CCc1ccccc1`, the melting point was 86 to 88 °C.

`OC1CSC(Oc2cccc(-c3cccnc3F)c2)C(O)C1O` (stereo not drawn) showed a melting point of 160 °C.

In turn, `CCOC(=O)c1cc2ccc(Cl)c(N(C)S(=O)(=O)c3cccs3)c2[nH]1` returned a melting point of 156 to 157 °C.

In the case of `Cn1cc2c(Cl)cc(-c3ccccc3)nc2n1`, the melting point fell in the range of 177 to 179 °C.

The compound `Ic1cccc(OCc2ccc3ccccc3c2)c1` gave a melting point of 111 to 112 °C.

Take `O=C1c2ccccc2C(=O)N1OCCBr`: the melting point is 98 °C.

Take `CN(Cc1ccc2c(Br)c(OCC(=O)O)ccc2c1)C(=O)c1oc2ccccc2c1CCc1ccccc1`: the melting point fell in the range of 119 to 122 °C.

In the case of `CCOC(=O)C(Cc1ccc(C(N)=S)cc1)(NC(C)=O)C(=O)OCC`, the melting point is 168 to 172 °C.

Compound `O=C(O)c1ccc(C(F)F)s1` registered a melting point of 111 to 112 °C.

The compound `CN(C)CCCCNC(=O)c1ccccc1-c1nnc(CSCCOc2ccccc2)o1` yielded a melting point of 62 to 65 °C.

`CCOC(=O)/C=C/c1ccc(O)c([N+](=O)[O-])c1` returned a melting point of 114 to 115 °C.

As for `CC(C)n1nc(-c2c(OC3CCCCC3)nc(N)nc2-c2ccccc2)ccc1=O`, the melting point lay within 173 to 175 °C.

`O=[N+]([O-])c1ccccc1COc1ccc2ncc3c(c2c1)C(O)CCC3` (stereo not drawn) had a melting point of 181 to 183 °C.

The compound `CCCN(CCCCNC(=O)N1CC=C(c2ccccc2)CC1)C1CCc2ncsc2C1` (stereo not drawn) yielded a melting point of 115 °C.

As for `CN(O)C(=O)NCCc1cc2ccccc2o1`, the melting point turned out to be 120 °C.

Take `C/C(=N\OC(=O)CN(C)C)[C@H]1CC[C@H]2[C@@H]3CCC4=CC(=O)CC[C@]4(C)[C@H]3CC[C@]12C`: the melting point is 129 to 131 °C.
